Reference: patent publication US8481678B2, “Peptide-based tooth whitening reagents” (E I du Pont de Nemours and Company, priority 2009, dated 2013)
Where no end group is shown, it is not given here. The star is where a group is joined. Biotin = O=C1N[C@H]2[C@H](CS[C@H]2CCCCC(=O)*)N1

Tested on: pellicle-coated HAP disks (tooth pellicle)
Test: Phage ELISA on pellicle-coated HAP disks
Assay type: binding, human
Settings: over 10^10 pfu phage, TBST-0.5% washes, no-phage control 0.218
Description: A total of 20 selected phage candidates (Example 1) were used in a phage ELISA experiment. Purified phage lysates were used for binding to pellicle-coated HAP disks using an anti-M13 phage antibody conjugated to horseradish-peroxidase, followed by the addition of chromogenic agent TMB (3,3′,5,5′-tetramethylbenzidine), obtained from Pierce Biotechnology (Item #34021; Rockford, Ill.). The plates were read at A450 nm.
For each phage candidate to be tested, the pellicle-coated HAP disks (3 mm diameter) was incubated for 1 h at room temperature with 200 μL of blocking buffer, consisting of 2% non-fat dry milk (Schleicher & Schuell, Inc.) in TBS. […] The tube was rinsed 6 times with wash buffer consisting of TBST-0.05%. The wells were filled with 200 μL of TBST-0.5% containing 1 mg/mL BSA (bovine serum albumin) and then 10 μL (over 10^10 pfu) of purified phage stock was added. The samples were incubated at room temperature for 60 min with slow shaking. The non-binding phage were removed by washing 6 times with TBST-0.5%. Then, 100 μL of horseradish peroxidase/anti-M13 antibody conjugate (Amersham USA, Piscataway, N.J.), diluted 1:500 in the blocking buffer, was added and incubated for 1 hour at room temperature. The conjugate solution was removed and was washed 6 times with TBST-0.5%.

Row | Substance | O.D. at 450 nm
1 | NPTDHIPANSTNSRVSKGNT (Tooth-binding peptide) [Pell 15] | 0.567
2 | NPTDSTHMMHARNHE (Tooth-binding peptide) [Pell 16] | 0.578
3 | ASVSNYPPIHHLATSNTTVN (Tooth-binding peptide) [Pell 2] | 0.75
4 | EPTHPTMRAQMHQSLRSSSP (Tooth-binding peptide) [Pell 8] | 0.712
5 | NGPDMVQSVGKHKNS (Tooth-binding peptide) [Pell 10] | 0.729
6 | WCTDFCTRSTPTSTSRSTTS (Tooth-binding peptide) [Pell 20] | 0.715
7 | TPCAPASFNPHCSR (Tooth-binding peptide) [Pell 18] | 0.416
8 | QHCITERLHPPCTK (Tooth-binding peptide) [Pell 17] | 0.614
9 | TPCATYPHFSGCRA (Tooth-binding peptide) [Pell 19] | 0.731
10 | DPNESNYENATTVSQPTRHL (Tooth-binding peptide) [Pell 7] | 0.831
11 | DLCSSPSTWGSCIR (Tooth-binding peptide) [Pell 6] | 0.735
12 | DECMEPLNAAHCWR (Tooth-binding peptide) [Pell 3] | 0.49
13 | DECMHGSDVEFCTS (Tooth-binding peptide) [Pell 4] | 0.664
14 | NNTSADNPPETDSKHHLSMS (Tooth-binding peptide) [Pell 12] | 0.521
15 | NGPEVRQIPANFEKL (Tooth-binding peptide) [Pell 11] | 0.607
16 | NPTATPHMKDPMHSNAHSSA (Tooth-binding peptide) [Pell 14] | 0.7
17 | NNTWPEGAGHTMPSTNIRQA (Tooth-binding peptide) [Pell 13] | 0.598
18 | AHPESLGIKYALDGNSDPHA (Tooth-binding peptide) [Pell 1] | 0.739
19 | DLCSMQMMNTGCHY (Tooth-binding peptide) [Pell 5] | 0.83
20 | GNTDTTPPNAVMEPTVQHKW (Tooth-binding peptide) [Pell 9] | 0.755

Tested on: pellicle coated bovine enamel
Test: Phage ELISA on pellicle-coated bovine enamel (30 min in vivo pellicle), Example 13
Assay type: binding, human
Settings: 10^11 pfu, 30 min at 37° C., normalized to an internal control
Description: A total of 29 selected phage candidates from Table 14 were used in phage ELISA Experiment to determine binding affinity and coverage of each phage on pellicle substrates. Purified phage lysates were used for binding to pellicle coated bovine enamel using an anti-M13 phage antibody conjugated to horseradish-peroxidase, followed by the addition of chromogenic agent TMB, obtained from Pierce Biotechnology (Rockford, Ill.). The plates were read at A450nm.
The wells were filled with 1 mL of 10^11 pfu purified phage stock which was prepared by diluting in blocking buffer. […] The non-binding phage was removed by washing 5 times with PBST. […] The conjugate solution was removed and was washed 3 times with PBST.

Row | Substance | O.D. at 450 nm (normalized)
21 | AVVPADLNDHANHLS (Synthetic oral-surface binding peptide) [DenP 10] | 1.619
22 | HKNENIMQYNVNDRWHITPA (Synthetic oral-surface binding peptide) [DenP 32] | 1.441
23 | SNATMYNIQSHSHHQ (Synthetic oral-surface binding peptide) [DenP 24] | 0.979
24 | KAPIANMLQPHSYQYSVA (Synthetic oral-surface binding peptide) [DenP 18] | 1.143
25 | SEARARTFNDHTTPMPII (Synthetic oral-surface binding peptide) [DenP 14] | 2.498
26 | TTGSSSQADTSASMSIVPAH (Synthetic oral-surface binding peptide) [DenP 17] | 0.971
27 | EFPYYNDNPPNPERHTLR (Synthetic oral-surface binding peptide) [DenP 07] | 1.500
28 | DTIHPNKMKSPSSPL (Synthetic oral-surface binding peptide) [DenP 26] | 1.039
29 | VNPNWVETQALHQPPGNT (Synthetic oral-surface binding peptide) [DenP 20] | 1.298
30 | TNDLHANPFTGTYIAPDPTS (Synthetic oral-surface binding peptide) [DenP 30] | 1.082
31 | DLGTFPNRTLKMAAH (Synthetic oral-surface binding peptide) [DenP 11] | 1.663
32 | GMPTRYYHNTPPHLTPKF (Synthetic oral-surface binding peptide) [DenP 08] | 1.182
33 | GPQHVLMQDTHQGYAFDN (Synthetic oral-surface binding peptide) [DenP 16] | 2.190
34 | APPTYQTASYPHNLPSKRKM (Synthetic oral-surface binding peptide) [DenP 28] | 1.203
35 | QVPDYLSPTHQKKAFLEIPT (Synthetic oral-surface binding peptide) [DenP 29] | 0.976
36 | FDGIGLGTATRHQNR (Synthetic oral-surface binding peptide) [DenP 12] | 2.079
37 | HDPNHLTHQARTIYRNANHT (Synthetic oral-surface binding peptide) [DenP 23] | 1.236
38 | NGNNHTDIPNRSSYTGGSFA (Synthetic oral-surface binding peptide) [DenP 01] | 1.002
39 | YLLPKDQTTAPQVTPIVQHK (Synthetic oral-surface binding peptide) [DenP 05] | 1.087
40 | TMTNHVYNSYTEKHSSTHRS (Synthetic oral-surface binding peptide) [DenP 02] | 1.951
41 | ANELSTYAQTNPGSG (Synthetic oral-surface binding peptide) [DenP 25] | 0.909
42 | QAAQVHMMQHSRPTT (Synthetic oral-surface binding peptide) [DenP 13] | 0.845
43 | IPWWNIRAPLNAGGG [Control, reference compound] | 1.000
44 | IYPNESMSTSNVRGPYHP (Synthetic oral-surface binding peptide) [DenP 22] | 1.420
45 | ELDHDSRHYMNGLQRKVT (Synthetic oral-surface binding peptide) [DenP 15] | 1.112
46 | DHNNRQHAVEVRENKTHTAR (Synthetic oral-surface binding peptide) [DenP 21] | 0.728
47 | VEPATKNMREARSSTQMRRI (Synthetic oral-surface binding peptide) [DenP 04] | 1.421
48 | TYQGVPSWPAVIDDAIRR (Synthetic oral-surface binding peptide) [DenP 19] | 1.052
49 | HKNAIQPVNDATTLDTTM (Synthetic oral-surface binding peptide) [DenP 09] | 1.364

Tested on: pellicle-coated enamel substrates
Test: not given
Settings: 20 μM synthetic biotinylated peptide, 30 min at 37° C.; normalized to DenP03; three replicates; no peptide −0.001
Description: A total of 20 synthetic peptides were manufactured using sequences obtained from Table 14. Peptides were obtained from Synbiosci (Livermore, Calif.) and included an additional SSRP sequence (SEQ ID NO: 151) at the N-terminus and biotin labeled lysine at the C-terminus.
Enamel substrates were cut to approx. 7 mm squares and mounted on wax mounting for incubation in the mouth for 30 min to form a pellicle coated surface. The pellicle-coated enamel substrates were removed from the wax backing and placed in well plates with the pellicle surface exposed as in Example 1. Each pellicle-coated substrate was incubated for 1 h at room temperature (˜22° C.) with 1 mL of blocking buffer, consisting of 1 mg/mL BSA in PBST (Pierce BupH™ #28372 with 0.1% TWEEN® 20). The blocking buffer was removed by aspirating the liquid out of each well. The tube was rinsed 2 times with wash buffer consisting of PBST. The wells were filled with 500 μL of 20 μM peptide solution which was prepared by diluting in blocking buffer. The samples were incubated for 30 min with slow shaking at 37° C. The non-binding peptide was removed by washing 6 times with PBST. Then, 500 μL of horseradish peroxidase/streptavidin conjugate (Pierce #22127), diluted 1:2000 in PBST, was added and incubated for 1 h at room temperature. The conjugate solution was removed and was washed 4 times with PBST.
Each enamel substrate was removed from the well and washed again in a 15-mL test tube with 10 mL of PBST. Each enamel substrate was then mounted in a clean well plate with only the enamel surface exposed. A 1:1 solution of TMB substrate and H2O2 (200 μL), obtained from Pierce Biotechnology (Rockford, Ill.) was added to each well and the color was allowed to develop for between 10 to 20 min, typically for 15 min, at room temperature (˜22° C.). Then, 100 μL of solution from each well was transferred to a 96-well reading plate containing stop solution (100 μL of 2 M H2SO4) in each well. The A450 was measured using a microplate spectrophotometer (Molecular Devices, Sunnyvale, Calif.). […] Each sequence was tested with three replicate enamel coated pellicle substrates.

Row | Substance | O.D. at 450 nm (normalized)
50 | SSRPTMTNHVYNSYTEKHSSTHRSK(Biotin) [DenP2-A] | 0.273
51 | SSRPYLLPKDQTTAPQVTPIVQHKK(Biotin) [DenP5-A] | 0.462
52 | SSRPHDPNHLTHQARTIYRNANHTK(Biotin) [DenP23-A] | 0.850
53 | SSRPTTGSSSQADTSASMSIVPAHK(Biotin) [DenP17-A] | 0.143
54 | SSRPEFPYYNDNPPNPERHTLRK(Biotin) [DenP7-A] | 0.356
55 | SSRPNGNNHTDIPNRSSYTGGSFAK(Biotin) [DenP1-A] | 0.154
56 | SSRPFDGIGLGTATRHQNRK(Biotin) [DenP12-A] | 0.475
57 | SSRPAPPTYQTASYPHNLPSKRKMK(Biotin) [DenP28-A] | 0.811
58 | SSRPDLGTFPNRTLKMAAHK(Biotin) [DenP11-A] | 0.454
59 | SSRPQAAQVHMMQHSRPTTK(Biotin) [DenP13-A] | 0.699
